Laboratory results from US20260274843A1, “SALT AND SOLID FORMS OF A CDK INHIBITOR” (GENENTECH, INC., priority 2023, published 2026).
≈ marks a conversion by molar mass, not a printed value. Values belong to the compound of their own block, whether it stands above or below them.

Legend:
Type in all cases: physicochemical
[1] = Estimated solubility measurement in selected solvents at room temperature; conditions: thermodynamic from solid
Description: Preliminary solubility of Compound (I) was estimated in 13 selected solvents at room temperature. About 2 mg of Compound (I) was weighed into sample vials and different solvents were added with vortex, 20-200 μL per time, until the drug solution was clear by observation. The volume of solvent was up to 1000 V. Then, the estimated solubility (mg/mL) was calculated.

[2] = Dynamic vapor sorption (DVS) moisture sorption/desorption; conditions: for hygroscopicity: in words
Description: Moisture sorption/desorption data was collected on a DVS Intrinsic PLUS (SMS, UK). The sample was placed into a tared sample chamber and automatically weighed. The sample was dried at 40° C./0% RH until the dm/dt was less than 0.002% and cooled to 25° C. The instrument parameters were set as below. • Sample temperature: 25° C. • Min time per step: 30 min • Max time per step: 120 min • Cycle: Full cycle • Adsorption: 0, 10, 20, 30, 40, 50, 60, 70, 80, 90 • Desorption: 80, 70, 60, 50, 40, 30, 20, 10, 0 • Save data rate: 5 s • Total flow rate: 200 sccm • Post experimental total flow: 200 sscm

[3] = Solubility testing in bio-relevant media (SGF, FaSSIF, FeSSIF) and water at 37° C.; conditions: after 0.5 hours
Description: The solubility of maleate Form I, and tosylate Form I were tested in bio-relevant media (SGF, FaSSIF, and FeSSIF) and water at 37° C. up to 24 hours. About 15 mg of the sample was weighed into sample vials and then 3 mL of media was added to make a suspension. All suspensions were shaken at 37° C. with a rate of 200 rpm. At 0.5, 2 and 24 hours, each suspension was filtered and the filtrate was analyzed by HPLC to test the solubility. pH of the filtrate was measured, and the filter cake was analyzed by XRPD.

[4] = Inter-conversion study by competitive slurry of mixed forms (XRPD); conditions: for resulting form after competitive slurry: RT and 50° C. or 60° C.
Description: Inter-conversion study was performed by competitive slurry of mixed different forms in solvents. The concentration of all slurry suspensions was 20 mg/mL.
Equal amount of Form I, II, III and IV were added into MeOH, IPA, EA, ACN and water to make suspensions, respectively. All suspensions were stirred at RT and 50° C. The filter cakes were checked by XRPD.
Equal amount of Form I and II were added into the saturated solution of Compound (I). The suspensions were stirred in MeOH, IPA and EA at 60° C. overnight. The filter cakes were checked by XRPD.
Equal amount of Form II and VII were added into the saturated solution of Compound (I). The suspensions were stirred in IPA and EA at RT and 50° C. The filter cakes were checked by XRPD.
Equal amount of Form II and VI were slurred in different water activity system (1 mL of EtOH/water) at RT for 3 days. Solid samples were collected by filtration and analyzed by XRPD.
Equal amount of Form III and VI were slurred in water at RT and 50° C. Solid samples were collected by filtration and analyzed by XRPD.

[5] = Physical stability at RT/92.5% RH (XRPD); conditions: open, 10 days
Description: (§1) Form II was prepared, characterized, and used for stability study. Solid stability of Form II was evaluated at RT/92.5% RH, 60° C. and 40° C./75% RH conditions for 10 days, respectively.
Appropriate amount of Form II was open put at RT/92.5% RH condition for 10 days. Then, the sample was checked by XRPD.

[6] = Solid stability at 40° C./75% RH and 60° C. (HPLC purity, XRPD); conditions: open; for Purity (Area %): HPLC
Description: as §1
An amount of Form II was open placed at 60° C. and 40° C./75% RH up to 10 days. At 0, 3 and 10 day, the sample was dissolved in diluent to prepare solution for purity analysis by HPLC. Solid samples were analyzed by XRPD to check the crystal form. […] Form II was physically and chemically stable at 40° C./75% RH and 60° C. for 10 days.
Appropriate amounts of maleate Form I and tosylate Form I were placed at 60° C. and 40° C./75% RH for up to 24 days. At 0 and 24 day, the sample was dissolved in diluent to prepare solution for purity analysis by HPLC. Solid samples were analyzed by XRPD to check the crystal form.

[7] = Mechanical treatment (grinding), XRPD check; conditions: ground in mortar, checked at 2 min and 5 min
Description: Form II (~15 mg) was ground into a mortar for about 5 minutes, and then checked by XRPD at 2 min and 5 min, respectively.

[8] = 40° C./75% RH and 60° C., up to 10 days

resulting form after competitive slurry ([4]; non-aqueous solvent): transformed to Form II
resulting form after slurry in water ([4]; 50° C.): to Form VI
SMILES: CC(C)c1cnn2ccc(-c3ccnc(Nc4ccc(N5CC[C@H](N(C)C)CC5=O)cn4)n3)cc12 [Form III, (S)-4-(dimethylamino)-1-(6-((4-(3-isopropylpyrazolo[1,5-a]pyridin-5-yl)pyrimidin-2-yl)amino)pyridin-3-yl)piperidin-2-one]

resulting form after competitive slurry ([4]; non-aqueous solvent): transformed to Form II
SMILES: CC(C)c1cnn2ccc(-c3ccnc(Nc4ccc(N5CC[C@H](N(C)C)CC5=O)cn4)n3)cc12 [Form IV, (S)-4-(dimethylamino)-1-(6-((4-(3-isopropylpyrazolo[1,5-a]pyridin-5-yl)pyrimidin-2-yl)amino)pyridin-3-yl)piperidin-2-one]

resulting form after slurry in water ([4]; RT): transformed to Form III
SMILES: CC(C)c1cnn2ccc(-c3ccnc(Nc4ccc(N5CC[C@H](N(C)C)CC5=O)cn4)n3)cc12 [Form VI, (S)-4-(dimethylamino)-1-(6-((4-(3-isopropylpyrazolo[1,5-a]pyridin-5-yl)pyrimidin-2-yl)amino)pyridin-3-yl)piperidin-2-one]

The remaining lines, values behind:

SMILES: CC(C)c1cnn2ccc(-c3ccnc(Nc4ccc(N5CC[C@H](N(C)C)CC5=O)cn4)n3)cc12 [Compound (I), (S)-4-(dimethylamino)-1-(6-((4-(3-isopropylpyrazolo[1,5-a]pyridin-5-yl)pyrimidin-2-yl)amino)pyridin-3-yl)piperidin-2-one]
solubility ([1]; organic solvent or mixture, DCM): > 120 mg/mL
solubility ([1]; organic solvent or mixture, MeOH, MEK, EtOH and ACN): 1 to 7 mg/mL (≈ 2.13 to 14.9 mM)
solubility ([1]; organic solvent or mixture, THF): ~20 mg/mL (≈ 42.5 mM)
solubility ([1]; other selected solvents): < 1 mg/mL

SMILES: CC(C)c1cnn2ccc(-c3ccnc(Nc4ccc(N5CC[C@H](N(C)C)CC5=O)cn4)n3)cc12 [Form I, (S)-4-(dimethylamino)-1-(6-((4-(3-isopropylpyrazolo[1,5-a]pyridin-5-yl)pyrimidin-2-yl)amino)pyridin-3-yl)piperidin-2-one]
hygroscopicity [2]: non-hygroscopicity
crystal form in water during solubility test [3]: converted to a metastable hydrate
resulting form after competitive slurry ([4]; non-aqueous solvent): transformed to Form II

SMILES: CC(C)c1cnn2ccc(-c3ccnc(Nc4ccc(N5CC[C@H](N(C)C)CC5=O)cn4)n3)cc12 [Form II, (S)-4-(dimethylamino)-1-(6-((4-(3-isopropylpyrazolo[1,5-a]pyridin-5-yl)pyrimidin-2-yl)amino)pyridin-3-yl)piperidin-2-one]
reversibility of DVS adsorption/desorption plot [2]: nearly reversible
water absorbed (DVS) ([2]; 0-90% RH, 25° C.): ~ 0.5%
crystal form after DVS testing ([2]; XRPD after DVS): remained unchanged
hygroscopicity [2]: slightly hygroscopic
crystal form change (XRPD) [5]: No form change
crystal form change (XRPD) [6, 8]: no form changed
degradation (purity by HPLC) [6, 8]: No obvious degradation
Purity (Area %) ([6]; 40° C./75% RH, 0 d (initial)): 99.17 Area %
Purity (Area %) ([6]; 40° C./75% RH, 3 d): 99.15 Area %
Purity (Area %) ([6]; 40° C./75% RH, 10 d): 99.13 Area %
Purity (Area %) ([6]; 60° C., 0 d (initial)): 99.17 Area %
Purity (Area %) ([6]; 60° C., 3 d): 99.15 Area %
Purity (Area %) ([6]; 60° C., 10 d): 99.09 Area %
resulting form in competitive slurry with Form VI ([4]; EtOH/50% water, RT): transformed to the mixture of Form II and III
physical stability in competitive slurry with Form VI ([4]; EtOH/water with less than 5% of water, RT): physically stable
relative stability among anhydrous forms ([4]; temperature below 60° C., non-aqueous solvent): most stable anhydrous form
resulting form after slurry in water ([4]; 50° C.): mixture of Form II and III
resulting form after slurry in water ([4]; RT): transform to Form III
crystal form after grinding [7]: remained unchanged
